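GI50 is the concentration that inhibits growth by half. TGI: total growth inhibition.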
Experiments:
Experiment in all cases: DTP human tumour cell line panel, 384-well format
[1] = system: 786-0 renal
[2] = system: A498 renal
[3] = system: A549 NSCLC
[4] = system: ACHN renal
[5] = system: BT-549 breast
[6] = system: CAKI-1 renal
[7] = system: COLO 205 colon
[8] = system: DU-145 prostate
[9] = system: EKVX NSCLC
[10] = system: HCT-116 colon
[11] = system: HCT-15 colon
[12] = system: HL-60(TB) leukemia
[13] = system: HOP-62 NSCLC
[14] = system: HOP-92 NSCLC
[15] = system: HS 578T breast
[16] = system: HT29 colon
[17] = system: IGROV1 ovarian
[18] = system: K-562 leukemia
[19] = system: KM12 colon
[20] = system: MALME-3M melanoma
[21] = system: MCF7 breast
[22] = system: MDA-MB-231 breast
[23] = system: MDA-MB-435 melanoma
[24] = system: MDA-MB-468 breast
[25] = system: MOLT-4 leukemia
[26] = system: NCI-H226 lung
[27] = system: NCI-H23 lung
[28] = system: NCI-H322M lung
[29] = system: NCI-H460 NSCLC
[30] = system: NCI-H522 lung
[31] = system: OVCAR-3 ovarian
[32] = system: OVCAR-4 ovarian
[33] = system: OVCAR-5 ovarian
[34] = system: OVCAR-8 ovarian
[35] = system: PC-3 prostate
[36] = system: RXF 393 renal
[37] = system: SF-268 CNS
[38] = system: SF-295 CNS
[39] = system: SF-539 CNS
[40] = system: SK-MEL-2 melanoma
[41] = system: SK-MEL-28 melanoma
[42] = system: SK-MEL-5 melanoma
[43] = system: SK-OV-3 ovarian
[44] = system: SN12C renal
[45] = system: SNB-19 CNS
[46] = system: SNB-75 CNS
[47] = system: SR leukemia
[48] = system: SW-620 colon
[49] = system: T-47D breast
[50] = system: TK-10 renal
[51] = system: U251 glioblastoma
[52] = system: UACC-257 melanoma
[53] = system: UACC-62 melanoma
[54] = system: UO-31 renal

CC[C@@H]1C(=O)N(C)c2cnc(Nc3ccc(C(=O)NC4CCC(N5CCN(CC6CC6)CC5)CC4)cc3OC)nc2N1C(C)C (stereo partly drawn)
GI50 [1]: 90.7 nM | TGI [1]: 1150 nM | GI50 [2]: 69.6 nM | TGI [2]: 1260 nM | GI50 [3]: 41.6 nM | TGI [3]: 1040 nM | GI50 [4]: 89.2 nM | TGI [4]: 1660 nM | GI50 [5]: 19.6 nM | TGI [5]: 159 nM | GI50 [6]: 100 nM | TGI [6]: 1540 nM | GI50 [7]: < 10 nM | TGI [7]: 1310 nM | GI50 [8]: 16.6 nM | TGI [8]: 1200 nM | GI50 [9]: 37.1 nM | TGI [9]: 235 nM | GI50 [10]: < 10 nM | TGI [10]: 1030 nM | GI50 [11]: 35.8 nM | TGI [11]: 549 nM | GI50 [12]: < 10 nM | TGI [12]: < 10 nM | GI50 [13]: 23.3 nM | TGI [13]: 1160 nM | GI50 [14]: 96.9 nM | TGI [14]: 1700 nM | GI50 [15]: 19.5 nM | TGI [15]: 49.7 nM | GI50 [16]: < 10 nM | TGI [16]: 11.1 nM | GI50 [17]: 44.2 nM | TGI [17]: 1170 nM | GI50 [18]: < 10 nM | TGI [18]: 23.8 nM | GI50 [19]: 10.3 nM | TGI [19]: 50.7 nM | GI50 [20]: 44.6 nM | TGI [20]: 1760 nM | GI50 [21]: 11 nM | TGI [21]: 1270 nM | GI50 [22]: 42.4 nM | TGI [22]: 1790 nM | GI50 [23]: < 10 nM | TGI [23]: 13.7 nM | GI50 [24]: < 10 nM | TGI [24]: < 10 nM | GI50 [25]: < 10 nM | TGI [25]: < 10 nM | GI50 [26]: 151 nM | TGI [26]: 1750 nM | GI50 [27]: < 10 nM | TGI [27]: 28.2 nM | GI50 [28]: 66 nM | TGI [28]: 1100 nM | GI50 [29]: < 10 nM | TGI [29]: 1280 nM | GI50 [30]: < 10 nM | TGI [30]: < 10 nM | GI50 [31]: < 10 nM | TGI [31]: 145 nM | GI50 [32]: 222 nM | TGI [32]: 1120 nM | GI50 [33]: 38.9 nM | TGI [33]: 1710 nM | GI50 [34]: 18.1 nM | TGI [34]: 38.5 nM | GI50 [35]: 53.4 nM | TGI [35]: 2630 nM | GI50 [36]: < 10 nM | TGI [36]: 10.6 nM | GI50 [37]: 32.1 nM | TGI [37]: 1310 nM | GI50 [38]: 31.4 nM | TGI [38]: 1510 nM | GI50 [39]: 30.5 nM | TGI [39]: 159 nM | GI50 [40]: < 10 nM | TGI [40]: 26.7 nM | GI50 [41]: 87.6 nM | TGI [41]: 2120 nM | GI50 [42]: 14.7 nM | TGI [42]: 127 nM | GI50 [43]: 21.3 nM | TGI [43]: 176 nM | GI50 [44]: 232 nM | TGI [44]: 3340 nM | GI50 [45]: 96.8 nM | TGI [45]: 2970 nM | GI50 [46]: 71.4 nM | TGI [46]: 2100 nM | GI50 [47]: < 10 nM | TGI [47]: < 10 nM | GI50 [48]: < 10 nM | TGI [48]: 107 nM | GI50 [49]: 191 nM | TGI [49]: 897 nM | GI50 [50]: 66.6 nM | TGI [50]: 1390 nM | GI50 [51]: 40.8 nM | TGI [51]: 1420 nM | GI50 [52]: 1160 nM | TGI [52]: 2390 nM | GI50 [53]: 27.9 nM | TGI [53]: 1530 nM | GI50 [54]: 589 nM | TGI [54]: 1870 nM

Source: PubChem BioAssay (NCI)
